Experimental data reported in patent US20240148821A1, “PHARMACEUTICAL USE OF CYCLIC PEPTIDE COMPOUND” (CHUGAI SEIYAKU KABUSHIKI KAISHA, priority 2021, published 2024).
Numbered stars: 1 amine (or outer) side, 2 acyl side, 3 side chain; on linkers, the order of the positions; unused ones are H or OH. Bridge positions count the residues as written; N and C are the ends. Square brackets hold non-standard residues; d marks the D form. Peptide text beside a SMILES is read from it. * marks the point of attachment. hPhe(3,5-F2-4-CF3) = N[C@@H](CCc1cc(F)c(C(F)(F)F)c(F)c1)C(=O)O; hPhe(3-Cl-4-CF3) = N[C@@H](CCc1ccc(C(F)(F)F)c(Cl)c1)C(=O)O; hPhe(3-F,4-CF3) = N[C@@H](CCc1ccc(C(F)(F)F)c(F)c1)C(=O)O; NEtPhe(4-CF3) = CCN[C@@H](Cc1ccc(C(F)(F)F)cc1)C(=O)O; NMePhe(4-CF3) = CN[C@@H](Cc1ccc(C(F)(F)F)cc1)C(=O)O; NMeNle(6-CHF2) = CN[C@@H](CCCCC(F)F)C(=O)O; hPhe(4-Cl) = N[C@@H](CCc1ccc(Cl)cc1)C(=O)O; NMedβ3hAla = C[C@H](CC(=O)[*:2])N(C)[*:1]; X69 = CN(C)C(=O)COCCN(CC(=O)[*:2])[*:1]; NMeGly(cPent) = CN[C@H](C(=O)O)C1CCCC1; Pro(4,4-F2) = O=C(O)[C@@H]1CC(F)(F)CN1; NMeCha = CN[C@@H](CC1CCCCC1)C(=O)O; hhPhe = N[C@@H](CCCc1ccccc1)C(=O)O; NMeChg = CN[C@H](C(=O)O)C1CCCCC1; NMeI = CC[C@H](C)[C@H](NC)C(=O)O; NMeD = CN[C@@H](CC(=O)O)C(=O)O; Gly(N-CH2CH2OH) = O=C(O)CNCCO; NMeL = CN[C@@H](CC(C)C)C(=O)O; NMeV = CN[C@H](C(=O)O)C(C)C; d(β3hA) = C[C@@H](N)CC(=O)O; NMeAbu = CC[C@H](NC)C(=O)O; Pip = O=C(O)[C@@H]1CCCCN1; Morpholide = C1CN(*)CCO1; NMeA = CN[C@@H](C)C(=O)O; Piperidide = C1CCN(*)CC1; Pyrrolidide = C1CCN(*)C1; dNMeA = CN[C@H](C)C(=O)O; Ac5c = NC1(C(=O)O)CCCC1; Aze = O=C(O)[C@@H]1CCN1; Ac4c = NC1(C(=O)O)CCC1; Sar = CNCC(=O)O

target: protein-protein interaction between Kras and SOS1 (biotin-tagged human Kras loaded with GDP, His-tagged human SOS1) (Homo sapiens (Human), UniProt P01116, G12D); experiment: Protein-protein interaction inhibition between Kras and SOS1 (KrasG12D-SOS PPI) using AlphaScreen; assay type: biochemical; conditions: AlphaScreen; biotin-tagged human Kras loaded with GDP, His-tagged human SOS1; read-out: KRAS G12D-SOS PPI IC50;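 note: kras produced in E. coli, Ni-coupled donor beads and streptavidin acceptor beads, excitation 680 nm with emission detected at 520–620 nm via singlet oxygen transfer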

Row | SMILES | IC50
1 | CC[C@H](C)[C@@H]1NC(=O)[C@H](CC(C)C)N(C)C(=O)C[C@@H](C(=O)N2CCOCC2)N(C)C(=O)[C@H]([C@@H](C)CC)N(C)C(=O)C2(CCCC2)NC(=O)[C@@H]2CCCN2C(=O)[C@H](CCc2ccc(C(F)(F)F)c(F)c2)NC(=O)CN(C)C(=O)[C@H](CC2CCCCC2)N(C)C(=O)[C@@H]2CCN2C(=O)[C@H](C)N(C)C1=O [Compound 790] ([NMeL]I[NMeA][Aze][NMeCha][Sar][hPhe(3-F,4-CF3)]P[Ac5c][NMeI][NMeD]-Morpholide; lactam N-11) | 2.5 nM
2 | CC[C@H](C)[C@@H]1NC(=O)[C@H](CC(C)C)N(C)C(=O)C[C@@H](C(=O)N2CCCC2)N(C)C(=O)[C@H](C2CCCC2)N(C)C(=O)C2(CCCC2)NC(=O)[C@@H]2CCCN2C(=O)[C@H](CCc2ccc(C(F)(F)F)c(Cl)c2)NC(=O)CN(C)C(=O)[C@H](C2CCCC2)N(C)C(=O)[C@@H]2CCN2C(=O)[C@H](C)N(C)C1=O [Compound 201] ([NMeL]I[NMeA][Aze][NMeGly(cPent)][Sar][hPhe(3-Cl-4-CF3)]P[Ac5c][NMeGly(cPent)][NMeD]-Pyrrolidide; lactam N-11) | 0.58 nM
3 | CC[C@H](C)[C@@H]1NC(=O)[C@H](C)N(C)C(=O)C[C@@H](C)NC(=O)[C@H](C(C)C)N(C)C(=O)C2(CCCC2)NC(=O)[C@@H]2CCCN2C(=O)[C@H](CCc2ccc(C(F)(F)F)c(Cl)c2)NC(=O)[C@@H](C)N(C)C(=O)[C@H](CC2CCCCC2)N(C)C(=O)[C@@H]2CCN2C(=O)[C@H](CC)N(C)C1=O [Compound 2012] (cyclo([Ac5c][NMeV][d(β3hA)][NMeA]I[NMeAbu][Aze][NMeCha][dNMeA][hPhe(3-Cl-4-CF3)]P)) | 200 nM
4 | CC[C@H](C)[C@@H]1NC(=O)[C@H](CC(C)C)N(C)C(=O)C[C@@H](C(=O)N2CCCCC2)N(C)C(=O)[C@H]([C@@H](C)CC)N(C)C(=O)C2(CCCC2)NC(=O)[C@@H]2CCCN2C(=O)[C@H](CCc2ccc(C(F)(F)F)c(Cl)c2)NC(=O)CN(C)C(=O)[C@H](CC2CCCCC2)N(C)C(=O)[C@@H]2CCN2C(=O)[C@H](C)N(C)C1=O [Compound 1722] ([NMeL]I[NMeA][Aze][NMeCha][Sar][hPhe(3-Cl-4-CF3)]P[Ac5c][NMeI][NMeD]-Piperidide; lactam N-11) | 2.8 nM
5 | CC[C@H](C)[C@@H]1NC(=O)[C@H](CC(C)C)N(C)C(=O)C[C@@H](C)NC(=O)[C@H](C(C)C)N(C)C(=O)C2(CCCC2)NC(=O)[C@@H]2CCCN2C(=O)[C@H](CCc2ccc(C(F)(F)F)c(Cl)c2)NC(=O)CN(C)C(=O)[C@H](CC2CCCCC2)N(C)C(=O)[C@@H]2CCN2C(=O)CN(C)C1=O [Compound 663] (cyclo([Ac5c][NMeV][d(β3hA)][NMeL]I[Sar][Aze][NMeCha][Sar][hPhe(3-Cl-4-CF3)]P)) | 16 nM
6 | CC[C@H](C)[C@@H]1NC(=O)[C@H](CC(C)C)N(C)C(=O)C[C@@H](C(=O)N2CCCCC2)N(C)C(=O)[C@H](C2CCCCC2)N(C)C(=O)C2(CCCC2)NC(=O)CN(CCOCC(=O)N(C)C)C(=O)[C@H](CCc2ccc(C(F)(F)F)c(Cl)c2)NC(=O)CN(C)C(=O)[C@H](CC2CCCCC2)N(C)C(=O)CN(C)C(=O)CN(C)C1=O [Compound 2038, 2-[2-[(11S,17S,26S,29S,33S,36S)-11-[2-[3-chloro-4-(Trifluoromethyl)phenyl]ethyl]-36-cyclohexyl-17-(cyclohexylmethyl)-29-isobutyl-15,18,21,24,30,34,37-heptamethyl-26-[(1S)-1-methylpropyl]-7,10,13,16,19,22,25,28,31,35,38-undecaoxo-33-(piperidine-1-carbonyl)-6,9,12,15,18,21,24,27,30,34,37-undecazaspiro[4.33]octatriacontan-9-yl]ethoxy]-N,N-dimethyl-acetamide] ([NMeL]I[Sar][Sar][NMeCha][Sar][hPhe(3-Cl-4-CF3)][X69][Ac5c][NMeChg][NMeD]-Piperidide; lactam N-11) | 8.3 nM
7 | CC[C@H](C)[C@@H]1NC(=O)[C@H](CC(C)C)N(C)C(=O)C[C@@H](C(=O)N(C)C)NC(=O)[C@H](C2CCCC2)N(C)C(=O)C2(CCCC2)NC(=O)[C@@H]2CCCN2C(=O)[C@H](CCc2ccc(C(F)(F)F)c(Cl)c2)NC(=O)CN(C)C(=O)[C@H](CC2CCCCC2)N(C)C(=O)[C@@H]2CCN2C(=O)[C@H](C)N(C)C1=O [Compound 677] ([NMeL]I[NMeA][Aze][NMeCha][Sar][hPhe(3-Cl-4-CF3)]P[Ac5c][NMeGly(cPent)]D-NMe2; lactam N-11) | 4.1 nM
8 | CC[C@H](C)[C@@H]1NC(=O)[C@H](CC(C)C)N(C)C(=O)C[C@@H](C(=O)N2CCCCC2)N(C)C(=O)[C@H](CC(C)C)N(C)C(=O)C2(CCCC2)NC(=O)[C@@H]2CCCN2C(=O)[C@H](CCc2ccc(C(F)(F)F)c(Cl)c2)NC(=O)CN(C)C(=O)[C@H](CC2CCCCC2)N(C)C(=O)[C@@H]2CCN2C(=O)[C@H](C)N(C)C1=O [Compound 1657] ([NMeL]I[NMeA][Aze][NMeCha][Sar][hPhe(3-Cl-4-CF3)]P[Ac5c][NMeL][NMeD]-Piperidide; lactam N-11) | 2.8 nM
9 | CC[C@H](C)[C@@H]1NC(=O)[C@H](CC(C)C)N(C)C(=O)C[C@@H](C(=O)N2CCCCC2)N(C)C(=O)[C@H](C(C)C)N(C)C(=O)C2(CCCC2)NC(=O)[C@@H]2CCCN2C(=O)[C@H](CCc2ccc(Cl)cc2)NC(=O)CN(C)C(=O)[C@H](CC2CCCCC2)N(C)C(=O)[C@@H]2CCN2C(=O)CN(C)C1=O [Compound 916] ([NMeL]I[Sar][Aze][NMeCha][Sar][hPhe(4-Cl)]P[Ac5c][NMeV][NMeD]-Piperidide; lactam N-11) | 42 nM
10 | CC[C@H](C)[C@@H]1NC(=O)[C@H](CC(C)C)N(C)C(=O)C[C@@H](C)N(C)C(=O)[C@H]([C@@H](C)CC)N(C)C(=O)C2(CCC2)NC(=O)[C@@H]2CC(F)(F)CN2C(=O)[C@H](CCc2ccc(C(F)(F)F)c(Cl)c2)NC(=O)CN(C)C(=O)[C@H](Cc2ccc(C(F)(F)F)cc2)N(C)C(=O)[C@@H]2CCN2C(=O)[C@H](C)N(C)C1=O [Compound 462] (cyclo([Ac4c][NMeI][NMedβ3hAla][NMeL]I[NMeA][Aze][NMePhe(4-CF3)][Sar][hPhe(3-Cl-4-CF3)][Pro(4,4-F2)])) | 12 nM
11 | CC[C@H](C)[C@@H]1NC(=O)[C@H](CC(C)C)N(C)C(=O)C[C@@H](C)N(C)C(=O)[C@H]([C@@H](C)CC)N(C)C(=O)C2(CCC2)NC(=O)[C@@H]2CC(F)(F)CN2C(=O)[C@H](CCc2cc(F)c(C(F)(F)F)c(F)c2)NC(=O)CN(C)C(=O)[C@H](Cc2ccc(C(F)(F)F)cc2)N(CC)C(=O)[C@@H]2CCN2C(=O)[C@H](C)N(C)C1=O [Compound 85] (cyclo([Ac4c][NMeI][NMedβ3hAla][NMeL]I[NMeA][Aze][NEtPhe(4-CF3)][Sar][hPhe(3,5-F2-4-CF3)][Pro(4,4-F2)])) | 15 nM
12 | CC[C@H](C)[C@@H]1NC(=O)[C@H](CC(C)C)N(C)C(=O)C[C@@H](C(=O)N2CCCCC2)N(C)C(=O)[C@H](C(C)C)N(C)C(=O)C2(CCCC2)NC(=O)[C@@H]2CCCN2C(=O)[C@H](CCc2ccc(C(F)(F)F)c(Cl)c2)NC(=O)CN(C)C(=O)[C@H](CCCCC(F)F)N(C)C(=O)[C@@H]2CCN2C(=O)[C@H](C)N(C)C1=O [Compound 78] ([NMeL]I[NMeA][Aze][NMeNle(6-CHF2)][Sar][hPhe(3-Cl-4-CF3)]P[Ac5c][NMeV][NMeD]-Piperidide; lactam N-11) | 1.6 nM
13 | CC[C@H](C)[C@@H]1NC(=O)[C@H](C)N(C)C(=O)C[C@@H](C(=O)N2CCCCC2)N(C)C(=O)[C@H](C(C)C)N(C)C(=O)C2(CCCC2)NC(=O)[C@@H]2CCCN2C(=O)[C@H](CCCc2ccccc2)NC(=O)CN(C)C(=O)[C@H](CC2CCCCC2)N(C)C(=O)[C@@H]2CCN2C(=O)[C@H](C)N(C)C1=O [Compound 659] ([NMeA]I[NMeA][Aze][NMeCha][Sar][hhPhe]P[Ac5c][NMeV][NMeD]-Piperidide; lactam N-11) | 130 nM
14 | CC[C@H](C)[C@@H]1NC(=O)[C@H](CC(C)C)N(C)C(=O)C[C@@H](C)NC(=O)[C@H](C(C)C)N(C)C(=O)C2(CCCC2)NC(=O)[C@@H]2CCCN2C(=O)[C@H](CCc2ccc(C(F)(F)F)c(Cl)c2)NC(=O)CN(C)C(=O)[C@H](CC2CCCCC2)N(C)C(=O)[C@@H]2CCN2C(=O)[C@@H]2CCCCN2C1=O [Compound 416] (cyclo([Ac5c][NMeV][d(β3hA)][NMeL]I[Pip][Aze][NMeCha][Sar][hPhe(3-Cl-4-CF3)]P)) | 54 nM
15 | CC[C@H](C)[C@@H]1NC(=O)[C@H](CC(C)C)N(C)C(=O)C[C@@H](C(=O)N2CCCCC2)N(C)C(=O)[C@H](C2CCCCC2)N(C)C(=O)C2(CCCC2)NC(=O)CN(CCO)C(=O)[C@H](CCc2ccc(C(F)(F)F)c(Cl)c2)NC(=O)CN(C)C(=O)[C@H](CC2CCCCC2)N(C)C(=O)CN(C)C(=O)CN(C)C1=O [Compound 2037, (11S,17S,26S,29S,33S,36S)-11-[2-[3-chloro-4-(trifluoromethyl)phenyl]ethyl]-36-cyclohexyl-17-(cyclohexylmethyl)-9-(2-hydroxyethyl)-29-isobutyl-15,18,21,24,30,34,37-heptamethyl-26-[(1S)-1-methylpropyl]-33-(piperidine-1-carbonyl)-6,9,12,15,18,21,24,27,30,34,37-undecazaspiro[4.33]octatriacontane-7,10,13,16,19,22,25,28,31,35,38-undecone] ([NMeL]I[Sar][Sar][NMeCha][Sar][hPhe(3-Cl-4-CF3)][Gly(N-CH2CH2OH)][Ac5c][NMeChg][NMeD]-Piperidide; lactam N-11) | 0.58 nM
16 | CC[C@H](C)[C@@H]1NC(=O)[C@H](CC(C)C)N(C)C(=O)C[C@@H](C(=O)N2CCCC2)N(C)C(=O)[C@H]([C@@H](C)CC)N(C)C(=O)C2(CCCC2)NC(=O)[C@@H]2CCCN2C(=O)[C@H](CCc2ccc(C(F)(F)F)c(F)c2)NC(=O)CN(C)C(=O)[C@H](C2CCCC2)N(C)C(=O)[C@@H]2CCN2C(=O)[C@H](C)N(C)C1=O [Compound 313] ([NMeL]I[NMeA][Aze][NMeGly(cPent)][Sar][hPhe(3-F,4-CF3)]P[Ac5c][NMeI][NMeD]-Pyrrolidide; lactam N-11) | 4.2 nM
